Measurements taken from paper PMC10920834, “Synthesis, anticancer activity, and molecular docking of half-sandwich iron(II) cyclopentadienyl complexes with maleimide and phosphine or phosphite ligands” (Scientific Reports, 2024).

What was measured:
PBM cells = assay: Cell viability resazurin assay, PBM cells; format: cell-based, human; conditions: for viability of PBM cells relative to control: ± SD
Method in brief: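 Human PBM cells isolated from healthy-donor buffy coats by density gradient, seeded at 5 × 10^4 per well in RPMI 1640 and exposed to iron(II) complexes at 0.5–250 μM for 2 h and 24 h at 37 °C. Resazurin added for 2 h and fluorescence read at 530/590 nm; IC50 from percentage of control, octuplicate.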

HL-60 cells [1] = assay: Cell viability resazurin assay, HL-60 cells; format: cell-based, human; conditions: for viability of HL-60 cells relative to control: ± SD
Method in brief: (§1)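 A549 cells (5 × 10^3/well, adhered 24 h) or HL-60 cells (1 × 10^4/well) exposed to iron(II) complexes at 0.5–250 μM for 2 h and 24 h at 37 °C. Resazurin then added for 2 h; fluorescence (ex 530, em 590 nm) expressed as percent of control, IC50 calculated, octuplicate.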

A549 cells [2] = assay: Cell viability resazurin assay, A549 cells; format: cell-based, human; conditions: for viability of A549 cells relative to control: ± SD
Method in brief: as §1

HL-60 cells [3] = assay: Alkaline comet assay, HL-60 cells; format: cell-based, human
Description: (§2) Selected iron(II) complexes were added to the suspension of the cells to give final concentrations of 1, 5, 10, 25 and 50 μM. HL-60 and A549 cells were incubated with the complexes for 2 h at 37 °C. The comet assay was performed under alkaline conditions according to the procedure of Tokarz et al.[45]. […] Next, the cells were lysed for 1 h at 4 °C in a buffer containing 2.5 M NaCl, 0.1 M EDTA, 10 mM Tris, 1% Triton X-100, pH 10. Following the lysis, the slides were placed in an electrophoresis unit. DNA was allowed to unwind for 20 min in the solution containing 300 mM NaOH and 1 mM EDTA, pH > 13. […] After separation, the slides were washed in water, drained, stained with 2 μg/ml DAPI and covered with cover slips. As a prevention from additional DNA damage, the procedure described above was conducted under limited light or in the dark. Each experiment included the positive control—cells incubated with H2O2 at 20 µM for 15 min on ice (data not shown).
(§3) The comets obtained after single cell gel electrophoresis were analysed in the following manner. […] Hundred images of singular comets were randomly selected from each sample and the mean value of DNA in comet tail was taken as an index of DNA damage (expressed in percent).

A549 cells [4] = assay: Alkaline comet assay, A549 cells; format: cell-based, human; conditions: 2 h, 50 μM
Description: as §2, §3

[5] = test system: Genomic DNA isolated from A549 cell line; assay: DNA titration (UV-Vis absorption spectra); format: binding, human; conditions: 0.5, 5 and 50 µM, 15 min, room temp.
Description: Genomic DNA was isolated from A549 cell line using a commercially available kit (Extractme Genomic DNA Kit, Blirt, Gdansk, Poland) following the manufacturer’s protocol. The concentration and purity of DNA were measured by BioTek Synergy HT Microplate Reader (BioTek Instruments, Winooski, VT, USA). Genomic DNA in the amount of 20 µg was incubated with complex 2b for 15 min at room temp. at concentrations 0.5, 5, and 50 µM in a final volume of 2 ml. Next UV–Vis absorbance spectra (240–300 nm) was measured by UV–Vis JASCO V-630 spectrophotometer (JASCO, Japan).

## O=C1C=CC(=O)[N-]1.[C-]#[O+].[Fe+2].c1cc[cH-]c1.c1coc(P(c2ccco2)c2ccco2)c1 [2b, CpFe(CO)(P(Fu)3)(η^1-N-maleimidato)]
PBM cells; 2 h incubation, 0.5 µM
  viability of PBM cells relative to control: 98.07 ± 0.32%
PBM cells; 2 h incubation, 1 µM
  viability of PBM cells relative to control: 97.62 ± 0.66%
PBM cells; 2 h incubation, 2.5 µM
  viability of PBM cells relative to control: 96.06 ± 2.38%
PBM cells; 2 h incubation, 5 µM
  viability of PBM cells relative to control: 97 ± 1.29%
PBM cells; 2 h incubation, 10 µM
  viability of PBM cells relative to control: 96.53 ± 1.24%
PBM cells; 2 h incubation, 25 µM
  viability of PBM cells relative to control: 93.16 ± 4.6%
PBM cells; 2 h incubation, 50 µM
  viability of PBM cells relative to control: 79.21 ± 1.4%
PBM cells; 2 h incubation, 100 µM
  viability of PBM cells relative to control: 78.49 ± 1.24%
PBM cells; 2 h incubation, 250 µM
  viability of PBM cells relative to control: 75.23 ± 0.62%
PBM cells; 24 h incubation
  IC50: > 250 µM
PBM cells; 24 h incubation, 0.5 µM
  viability of PBM cells relative to control: 105.37 ± 7.62%
PBM cells; 24 h incubation, 1 µM
  viability of PBM cells relative to control: 101.81 ± 0.86%
PBM cells; 24 h incubation, 2.5 µM
  viability of PBM cells relative to control: 97.1 ± 1.83%
PBM cells; 24 h incubation, 5 µM
  viability of PBM cells relative to control: 94.2 ± 4.56%
PBM cells; 24 h incubation, 10 µM
  viability of PBM cells relative to control: 94.94 ± 2.09%
PBM cells; 24 h incubation, 25 µM
  viability of PBM cells relative to control: 88.93 ± 2.18%
PBM cells; 24 h incubation, 50 µM
  viability of PBM cells relative to control: 85.34 ± 2.58%
PBM cells; 24 h incubation, 100 µM
  viability of PBM cells relative to control: 83.38 ± 3.4%
PBM cells; 24 h incubation, 250 µM
  viability of PBM cells relative to control: 77.59 ± 2.06%
HL-60 cells [1]; 2 h incubation, 0.5 µM
  viability of HL-60 cells relative to control: 106.51 ± 2.33%
HL-60 cells [1]; 2 h incubation, 1 µM
  viability of HL-60 cells relative to control: 106.74 ± 1.35%
HL-60 cells [1]; 2 h incubation, 2.5 µM
  viability of HL-60 cells relative to control: 103.04 ± 1.98%
HL-60 cells [1]; 2 h incubation, 5 µM
  viability of HL-60 cells relative to control: 104.72 ± 2.62%
HL-60 cells [1]; 2 h incubation, 10 µM
  viability of HL-60 cells relative to control: 104.03 ± 2.08%
HL-60 cells [1]; 2 h incubation, 25 µM
  viability of HL-60 cells relative to control: 95.86 ± 2.66%
HL-60 cells [1]; 2 h incubation, 50 µM
  viability of HL-60 cells relative to control: 90.45 ± 0.98%
HL-60 cells [1]; 2 h incubation, 100 µM
  viability of HL-60 cells relative to control: 76.15 ± 3.1%
HL-60 cells [1]; 2 h incubation, 250 µM
  viability of HL-60 cells relative to control: 21.23 ± 1.56%
HL-60 cells [1]; 24 h incubation
  IC50: 10 µM
HL-60 cells [1]; 24 h incubation, 0.5 µM
  viability of HL-60 cells relative to control: 107.57 ± 3.87%
HL-60 cells [1]; 24 h incubation, 1 µM
  viability of HL-60 cells relative to control: 105.5 ± 3.13%
HL-60 cells [1]; 24 h incubation, 2.5 µM
  viability of HL-60 cells relative to control: 97.63 ± 0.5%
HL-60 cells [1]; 24 h incubation, 5 µM
  viability of HL-60 cells relative to control: 79.34 ± 1.21%
HL-60 cells [1]; 24 h incubation, 10 µM
  viability of HL-60 cells relative to control: 51.6 ± 1.43%
HL-60 cells [1]; 24 h incubation, 25 µM
  viability of HL-60 cells relative to control: 38.21 ± 0.22%
HL-60 cells [1]; 24 h incubation, 50 µM
  viability of HL-60 cells relative to control: 35.8 ± 2.09%
HL-60 cells [1]; 24 h incubation, 100 µM
  viability of HL-60 cells relative to control: 25.41 ± 1.92%
HL-60 cells [1]; 24 h incubation, 250 µM
  viability of HL-60 cells relative to control: 17.52 ± 1.12%
A549 cells [2]; 2 h incubation, 0.5 µM
  viability of A549 cells relative to control: 84.30 ± 11.24%
A549 cells [2]; 2 h incubation, 1 µM
  viability of A549 cells relative to control: 80.74 ± 14%
A549 cells [2]; 2 h incubation, 2.5 µM
  viability of A549 cells relative to control: 82.33 ± 9.73%
A549 cells [2]; 2 h incubation, 5 µM
  viability of A549 cells relative to control: 83.32 ± 11.51%
A549 cells [2]; 2 h incubation, 10 µM
  viability of A549 cells relative to control: 101.28 ± 15.65%
A549 cells [2]; 2 h incubation, 25 µM
  viability of A549 cells relative to control: 114.98 ± 11.35%
A549 cells [2]; 2 h incubation, 50 µM
  viability of A549 cells relative to control: 123.09 ± 7.89%
A549 cells [2]; 2 h incubation, 100 µM
  viability of A549 cells relative to control: 84.95 ± 8.31%
A549 cells [2]; 2 h incubation, 250 µM
  viability of A549 cells relative to control: 40.75 ± 4.24%
A549 cells [2]; 24 h incubation
  IC50: 73.5 µM
A549 cells [2]; 24 h incubation, 0.5 µM
  viability of A549 cells relative to control: 81.57 ± 14.09%
A549 cells [2]; 24 h incubation, 1 µM
  viability of A549 cells relative to control: 74.40 ± 19.47%
A549 cells [2]; 24 h incubation, 2.5 µM
  viability of A549 cells relative to control: 73.54 ± 23.46%
A549 cells [2]; 24 h incubation, 5 µM
  viability of A549 cells relative to control: 61.87 ± 14.65%
A549 cells [2]; 24 h incubation, 10 µM
  viability of A549 cells relative to control: 87.91 ± 9.79%
A549 cells [2]; 24 h incubation, 25 µM
  viability of A549 cells relative to control: 110.30 ± 11.49%
A549 cells [2]; 24 h incubation, 50 µM
  viability of A549 cells relative to control: 91.31 ± 16.37%
A549 cells [2]; 24 h incubation, 100 µM
  viability of A549 cells relative to control: 13.33 ± 3.51%
A549 cells [2]; 24 h incubation, 250 µM
  viability of A549 cells relative to control: 1.39 ± 0.12%
HL-60 cells [3]; 2 h incubation, 1-50 μM tested
  DNA damage in HL-60 cells (alkaline comet assay), in words: induced DNA damage
HL-60 cells [3]; HL-60 cells, 2 h, 50 μM
  DNA in tail (alkaline comet assay): 6%
A549 cells [4]
  percentage of DNA damage in tail (alkaline comet assay): about 2%
[5]
  interaction with DNA (UV-Vis spectroscopic titration): does not interact in an intercalative manner with DNA
